Test results as given in ChEMBL document CHEMBL1151402, “Normaytancyprine, A Minor Antileukemic Ansa Macrolide From Putterlickia verrucosa” (1982).
Converted amounts (≈) assume the structure as drawn.

What was measured:
KB = assay: Cytotoxicity against human KB cells; format: functional; settings: read-out: ED50 (the source's name)
P388 = assay: In vivo cytotoxicity against mouse P388 cells at 0.4 to 12.5 mg/kg; format: functional; settings: dose mg/kg 0.4-12.5

Question: For `COc1cc2cc(c1Cl)NC(=O)C[C@H](OC(=O)[C@H](C)N(C)C(=O)C1C(C)C1C)[C@]1(C)O[C@H]1[C@H](C)[C@@H]1C[C@@](O)(NC(=O)O1)[C@H](OC)/C=C/C=C(\C)C2` (some centres not stated) [NORMAYTANCYPRINE], which EC50 (KB) is on record?
Answer: 0.001 ng/mL (≈ 0.00137 nM)

Question: And the T/C (P388)?
Answer: 145%
